Data as given in PubChem BioAssay AID328 (DTP/NCI, 2004).
“And” between values parts separate entries of the source, which are not always exact repeats. Equal values may be shown once. Inconclusive results and toxic doses are left out. How the source made its calls: active means survival T/C of 150% or more; inactive means T/C below 125% in these data. Residues, ends and D or L forms follow the SMILES beside them.

Tested on: BDF1 mice, P388 leukemia ip, median survival T/C
Assay: NCI In Vivo Anticancer Drug Screen. Data for tumor model P388 Leukemia (intraperitoneal) in B6D2F1 (BDF1) mice
Settings: endpoint: median survival time, higher = longer survival
Method in brief: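 Antitumour effect was judged in vivo: survival in drug-treated mice, normalised to that of vehicle-dosed controls, gives the reported T/C.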

[1] = dose: 100.0 mg/kg/injection, schedule: Q04DX003 (ip), vehicle: saline
[2] = dose: 200.0 mg/kg/injection, schedule: Q04DX003 (ip), vehicle: saline
[3] = dose: 400.0 mg/kg/injection, schedule: Q04DX003 (ip), vehicle: saline
[4] = dose: 100.0 mg/kg/injection, schedule: Q04DX003 (ip), vehicle: saline with Tween-80
[5] = dose: 400.0 mg/kg/injection, schedule: Q04DX003 (ip), vehicle: saline with Tween-80
[6] = dose: 200.0 mg/kg/injection, schedule: Q04DX003 (ip), vehicle: saline with Tween-80
[7] = dose: 50.0 mg/kg/injection, schedule: Q01DX009 (ip), vehicle: saline with Tween-80
[8] = dose: 50.0 mg/kg/injection, schedule: Q01DX009 (ip), vehicle: Klucel (hydroxypropylcellulose) (HPC)
[9] = dose: 100.0 mg/kg/injection, schedule: Q01DX009 (ip), vehicle: Klucel (hydroxypropylcellulose) (HPC)
[10] = dose: 100.0 mg/kg/injection, schedule: Q04DX003 (ip), vehicle: Klucel (hydroxypropylcellulose) (HPC)
[11] = dose: 200.0 mg/kg/injection, schedule: Q04DX003 (ip), vehicle: Klucel (hydroxypropylcellulose) (HPC)
[12] = dose: 400.0 mg/kg/injection, schedule: Q04DX003 (ip), vehicle: Klucel (hydroxypropylcellulose) (HPC)
[13] = dose: 200.0 mg/kg/injection, schedule: Q01DX009 (ip), vehicle: Klucel (hydroxypropylcellulose) (HPC)
[14] = dose: 100.0 mg/kg/injection, schedule: Q04DX003 (ip), vehicle: other
[15] = dose: 200.0 mg/kg/injection, schedule: Q04DX003 (ip), vehicle: other
[16] = dose: 100.0 mg/kg/injection, schedule: Q01DX009 (ip), vehicle: saline with Tween-80

Measured: T/C

O=S(O)OS(=O)O
inactive: dose: 90.0 mg/kg/injection, schedule: Q01DX009 (ip), vehicle: saline 105 % of control | dose: 100.0 mg/kg/injection, schedule: Q01DX009 (ip), vehicle: saline 100 % of control | [1] 96 % of control | dose: 133.0 mg/kg/injection, schedule: Q01DX009 (ip), vehicle: saline 95 % of control and 100 % of control | dose: 200.0 mg/kg/injection, schedule: Q01DX009 (ip), vehicle: saline 100 % of control and 116 % of control | [2] 92 % of control | dose: 400.0 mg/kg/injection, schedule: Q01DX009 (ip), vehicle: saline 104 % of control | [3] 96 % of control

N=Nc1c2ccccc2c2nc3c(N)[nH]nc(N)c3nc12
inactive: [4] 97 % of control | [5] 95 % of control

CN(C)c1ccc(C=Nc2ccc3c(c2)/C(=C/c2ccc(N(C)C)cc2)c2ccccc2-3)cc1
inactive: dose: 25.0 mg/kg/injection, schedule: Q04DX003 (ip), vehicle: saline with Tween-80 116 % of control | dose: 50.0 mg/kg/injection, schedule: Q04DX003 (ip), vehicle: saline with Tween-80 122 % of control | [4] 116 % of control | [6] 121 % of control

COC(=O)C1CCCCC1NC(C)=O (stereo not drawn)
inactive: [1] 95 % of control | [2] 100 % of control | [3] 91 % of control

NC(CC[Se]CC(N)C(=O)O)C(=O)O (stereo not drawn)
inactive: dose: 0.5 mg/kg/injection, schedule: Q01DX010 (ip), vehicle: saline 90 % of control | dose: 1.0 mg/kg/injection, schedule: Q01DX010 (ip), vehicle: saline 104 % of control | dose: 2.0 mg/kg/injection, schedule: Q01DX010 (ip), vehicle: saline 100 % of control | dose: 4.0 mg/kg/injection, schedule: Q01DX010 (ip), vehicle: saline 104 % of control

Nc1nc(N)c2cc(Sc3cccc(C(F)(F)F)c3)ccc2n1
inactive: [7] 113 % of control

CC(=O)Nc1nccs1
inactive: dose: 25.0 mg/kg/injection, schedule: Q01DX009 (ip), vehicle: Klucel (hydroxypropylcellulose) (HPC) 104 % of control | dose: 25.0 mg/kg/injection, schedule: Q04DX003 (ip), vehicle: Klucel (hydroxypropylcellulose) (HPC) 95 % of control | [8] 95 % of control | dose: 50.0 mg/kg/injection, schedule: Q04DX003 (ip), vehicle: Klucel (hydroxypropylcellulose) (HPC) 91 % of control | [9] 109 % of control | [10] 95 % of control

O=C(NC(CO)C(=O)OCc1ccccc1)OCc1ccccc1 (stereo not drawn)
inactive: [10] 95 % of control | [4] 100 % of control | [11] 87 % of control | [6] 100 % of control | [12] 91 % of control | [5] 100 % of control

COc1ccc(C2CCCCC2O)cc1 (stereo not drawn)
inactive: [9] 100 % of control | [10] 100 % of control | [13] 100 % of control | [11] 100 % of control | [12] 110 % of control

O=C(O)CCCc1ccc(Oc2ccccc2)cc1
inactive: [14] 92 % of control | [15] 93 % of control | dose: 400.0 mg/kg/injection, schedule: Q04DX003 (ip), vehicle: other 86 % of control

OCC(F)(F)C(F)(F)C(F)(F)C(F)F
inactive: [9] 95 % of control | [10] 104 % of control | [13] 105 % of control | [11] 100 % of control | dose: 400.0 mg/kg/injection, schedule: Q01DX009 (ip), vehicle: Klucel (hydroxypropylcellulose) (HPC) 115 % of control | [12] 90 % of control

CCOC(=O)COc1ccc(/C=C(\C)[N+](=O)[O-])c2ccccc12
inactive: [7] 112 % of control and 123 % of control | [16] 112 % of control | dose: 200.0 mg/kg/injection, schedule: Q01DX009 (ip), vehicle: saline with Tween-80 122 % of control | dose: 400.0 mg/kg/injection, schedule: Q01DX009 (ip), vehicle: saline with Tween-80 106 % of control

CC1(O)CCC2C3CCC4=CC(=O)CCC4C3CCC21C (stereo not drawn)
inactive: [8] 113 % of control | dose: 65.0 mg/kg/injection, schedule: Q01DX009 (ip), vehicle: Klucel (hydroxypropylcellulose) (HPC) 94 % of control | dose: 66.0 mg/kg/injection, schedule: Q01DX009 (ip), vehicle: Klucel (hydroxypropylcellulose) (HPC) 95 % of control and 100 % of control | [14] 100 % of control | [13] 100 % of control and 118 % of control | [15] 115 % of control

CCN(C(=O)Nc1cccc2ccccc12)c1ccccc1
inactive: dose: 50.0 mg/kg/injection, schedule: Q01DX001 (ip), vehicle: other 95 % of control | dose: 100.0 mg/kg/injection, schedule: Q01DX001 (ip), vehicle: other 95 % of control | dose: 200.0 mg/kg/injection, schedule: Q01DX001 (ip), vehicle: other 100 % of control

CCCCCCCCCCCCC1CC(=O)OC1=O (stereo not drawn)
inactive: dose: 75.0 mg/kg/injection, schedule: Q01DX009 (ip), vehicle: Klucel (hydroxypropylcellulose) (HPC) 90 % of control | [10] 104 % of control | [1] 108 % of control | dose: 150.0 mg/kg/injection, schedule: Q01DX009 (ip), vehicle: Klucel (hydroxypropylcellulose) (HPC) 90 % of control | [11] 109 % of control | dose: 300.0 mg/kg/injection, schedule: Q01DX009 (ip), vehicle: Klucel (hydroxypropylcellulose) (HPC) 109 % of control | [12] 100 % of control | [3] 120 % of control

OC(CCCCl)CC(O)(C(F)(F)F)C(F)(F)F (stereo not drawn)
inactive: [4] 100 % of control | [6] 109 % of control

O=C1Nc2c(Cl)cc(Cl)cc2/C1=N/N=C/c1ccccc1O
inactive: dose: 12.5 mg/kg/injection, schedule: Q01DX005 (ip), vehicle: saline with Tween-80 95 % of control | dose: 25.0 mg/kg/injection, schedule: Q01DX005 (ip), vehicle: saline with Tween-80 95 % of control | dose: 50.0 mg/kg/injection, schedule: Q01DX005 (ip), vehicle: saline with Tween-80 95 % of control

Cc1ccc(N(OC(=O)c2ccccc2)C(C)(C)C)cc1
inactive: dose: 25.0 mg/kg/injection, schedule: Q04DX002 (ip), vehicle: saline with Tween-80 93 % of control | dose: 50.0 mg/kg/injection, schedule: Q04DX002 (ip), vehicle: saline with Tween-80 109 % of control | dose: 100.0 mg/kg/injection, schedule: Q04DX002 (ip), vehicle: saline with Tween-80 111 % of control and 113 % of control

Cc1cccn2c(C)nnc12
inactive: dose: 25.0 mg/kg/injection, schedule: Q01DX009 (ip), vehicle: saline with Tween-80 110 % of control | [7] 101 % of control | [16] 99 % of control

C[N+](C)(C)CCOC(=O)/C=C/c1cnc[nH]1
inactive: dose: 5.0 mg/kg/injection, schedule: Q01DX009 (ip), vehicle: saline 97 % of control | dose: 10.0 mg/kg/injection, schedule: Q01DX009 (ip), vehicle: saline 95 % of control | dose: 20.0 mg/kg/injection, schedule: Q01DX009 (ip), vehicle: saline 117 % of control

COc1ccc2nc3cc(Cl)ccc3c(NCCCNCCCCNCCCNc3c4ccc(Cl)cc4nc4ccc(OC)cc34)c2c1
inactive: dose: 1.25 mg/kg/injection, schedule: Q01DX009 (ip), vehicle: saline with Tween-80 116 % of control | dose: 2.5 mg/kg/injection, schedule: Q01DX009 (ip), vehicle: saline with Tween-80 107 % of control

NC(=O)C(Cc1ccc(O)cc1)NC(=O)C(N)Cc1c[nH]c2ccccc12 (stereo not drawn) (H-Trp-Tyr-NH2; configuration not given here)
inactive: dose: 50.0 mg/kg/injection, schedule: Q01DX005 (ip), vehicle: saline 92 % of control | dose: 100.0 mg/kg/injection, schedule: Q01DX005 (ip), vehicle: saline 92 % of control | dose: 200.0 mg/kg/injection, schedule: Q01DX005 (ip), vehicle: saline 87 % of control
